For data set [1], the system named is Peripheral blood mononuclear cells (PBMC). The data set is described as follows: Cytokine Induction in Human Cells (in vitro human blood cell system, IFN and TNF secreted into culture media). It is filed as cell-based. Also noted: key to Lowest Effective Concentration (μM) Tumor Necrosis Factor / Lowest Effective Concentration (μM) Interferon: *: no induction was seen at any of the tested concentrations. To be noted: 18 to 24 hours, tested 30-0.014 μM. In short, it runs like this:
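Human donor PBMC (2×10^6 cells/mL, RPMI complete) incubated 18–24 h at 37 °C, 5% CO2 with compound, 3-fold dilutions 30–0.014 μM, ≤1% DMSO. IFN-α measured by ELISA, TNF-α by ELISA or IGEN immunoassay in supernatants (pg/mL). Value is lowest concentration inducing each cytokine.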

The mark [2] stands for this setting: Homo sapiens, PBMC, lowest concentration found to induce interferon (α), ELISA, read-out: Lowest Effective Concentration (μM) Interferon.
Setting [3] is: Homo sapiens, PBMC, lowest concentration found to induce tumor necrosis factor (α), ELISA or IGEN assay, read-out: Lowest Effective Concentration (μM) Tumor Necrosis Factor.
[4] abbreviates: lowest concentration found to induce interferon (α), ELISA.
The mark [5] stands for this setting: lowest concentration found to induce tumor necrosis factor (α), ELISA or IGEN assay.
The mark [6] stands for this setting: lowest concentration found to induce interferon (α), ELISA, read-out: Lowest Effective Concentration (μM) Interferon.

Usually melting point stands for the temperature of the solid-liquid transition.

Where two headings read alike, the source gives them in different places.

For `CCOCc1nc2c(N)nc3ccccc3c2n1CCOCc1ccccc1` [Example 125, 1-[2-(Benzyloxy)ethyl]-2-(ethoxymethyl)-1H-imidazo[4,5-c]quinolin-4-amine], the melting point was 144.5 to 146 °C. In addition, in data set [1] (setting [2]), the minimal effective concentration was 0.01 µM. For the same molecule, the minimal effective concentration in data set [1] (setting [3]) came to 0.37 µM.
Consider `Nc1nc2ccccc2c2c1nc(C1CCCC1)n2CCOc1ccccc1` [Example 135, 2-Cyclopentyl-1-(2-phenoxyethyl)-1H-imidazo[4,5-c]quinolin-4-amine], for which the melting point is 216 to 217.9 °C. Moreover, in data set [1] (setting [4]), the “Lowest Effective Concentration (μM) Interferon” value is “*”. The “Lowest Effective Concentration (μM) Tumor Necrosis Factor” value in data set [1] (setting [5]) is “*”.
`CCOCc1nc2c(N)nc3ccccc3c2n1CCOCC#Cc1ccccc1` [Example 122, 2-(Ethoxymethyl)-1-{2-[(3-phenylprop-2-ynyl)oxy]ethyl}-1H-imidazo[4,5-c]quinolin-4-amine] showed a melting point of 110.8 to 111.7 °C. The minimal effective concentration in data set [1] (setting [2]) came to 0.01 µM. Besides, in data set [1] (setting [3]), the minimal effective concentration was 0.12 µM.
`COCCc1nc2c(N)nc3ccccc3c2n1CCOc1ccccc1` [Example 129, 2-(2-Methoxyethyl)-1-(2-phenoxyethyl)-1H-imidazo[4,5-c]quinolin-4-amine] returned a melting point of 171 to 174 °C. Further, the minimal effective concentration in data set [1] (setting [2]) was found to be 0.01 µM. Also, in data set [1] (setting [3]), the minimal effective concentration came to 0.04 µM.
On the same counts, the results for `Nc1nc2ccccc2c2c1ncn2CCOCC#Cc1ccccc1C(F)(F)F` [Example 10, 1-[2-({3-[2-(Trifluoromethyl)phenyl]-2-propynyl}oxy)ethyl]-1H-imidazo[4,5-c]quinolin-4-amine] are 154 to 155 °C, 1.11 µM and 10 µM.
`CCC(COCc1ccc(C#N)cc1)n1cnc2c(N)nc3ccccc3c21` (stereo not drawn) [Example 141, 4-{[2-(4-Amino-1H-imidazo[4,5-c]quinolin-1-yl)butoxy]methyl}benzonitrile] displayed a melting point of 160 to 161 °C. The minimal effective concentration in data set [1] (setting [6]) was 0.12 µM. Moreover, the minimal effective concentration in data set [1] (lowest concentration found to induce tumor necrosis factor (α), ELISA or IGEN assay, read-out: Lowest Effective Concentration (μM) Tumor Necrosis Factor) was determined as 0.12 µM.
`CC[C@H](COCC#Cc1ccccc1)n1cnc2c(N)nc3ccccc3c21` [Example 108, 1-((1R)-1-{[(3-Phenylprop-2-ynyl)oxy]methyl}propyl)-1H-imidazo[4,5-c]quinolin-4-amine] registered a melting point of 63 to 67 °C. Besides, the minimal effective concentration in data set [1] (setting [2]) stood at 0.00017 µM. For the same molecule, the minimal effective concentration in data set [1] (setting [3]) worked out at 0.04 µM.
With `Nc1nc2ccccc2c2c1ncn2CCOCC#Cc1ccccc1` [Example 3, 1-{2-[(3-Phenyl-2-propynyl)oxy]ethyl}-1H-imidazo[4,5-c]quinolin-4-amine], the melting point is 196 to 197 °C. In addition, the minimal effective concentration in data set [1] (setting [2]) amounted to 0.12 µM. Also, the minimal effective concentration in data set [1] (setting [3]) is 3.33 µM.
In turn, `Nc1nc2ccccc2c2c1ncn2CCOCC#Cc1ccc(Oc2ccccc2)cc1` [Example 9, 1-(2-{[3-(4-Phenoxyphenyl)-2-propynyl]oxy}ethyl)-1H-imidazo[4,5-c]quinolin-4-amine] returned a melting point of 146 to 148 °C. The “Lowest Effective Concentration (μM) Interferon” value in data set [1] (setting [4]) is given as “*”. The “Lowest Effective Concentration (μM) Tumor Necrosis Factor” value in data set [1] (setting [5]) is “*”.
The molecule `Cl.Nc1nc2ccccc2c2c1ncn2CCOCC#Cc1ccccc1` [Example 4, 1-{2-[(3-Phenyl-2-propynyl)oxy]ethyl}-1H-imidazo[4,5-c]quinolin-4-amine Hydrochloride] gave a melting point of 231 to 236 °C. Besides, in data set [1] (setting [6]), the minimal effective concentration came to 0.12 µM. In addition, the “Lowest Effective Concentration (μM) Tumor Necrosis Factor” value in data set [1] (setting [5]) is given as “*”.
On to `Cc1nc2c(N)nc3ccccc3c2n1CCCOCCCc1ccccc1` [Example 148, 2-Methyl-1-[3-(3-phenylpropoxy)propyl]-1H-imidazo[4,5-c]quinolin-4-amine], for which the melting point lay in the range of 145 to 146.1 °C. In addition, in data set [1] (setting [2]), the minimal effective concentration was 1.11 µM. In data set [1] (setting [3]), the minimal effective concentration came to 1.11 µM.

For the origin of these results see patent publication US6989389B2, “Aryl ether substituted imidazoquinolines” (3M Innovative Properties Co., priority 2000, dated 2006).
